Reference: ChEMBL document CHEMBL1125969, “Design, synthesis and cytotoxic evaluation of keto-C-glycoside fatty acid conjugates” (Bioorg Med Chem Lett, 1991)

tested on: LFCl2A; experiment: In vitro cytotoxicity against LFCl2A (rat hepatocarcinoma) cells.; assay type: functional, cell-based; details: not given

Structure (SMILES) | IC50
O=c1[nH]cc(F)c(=O)[nH]1 [FLUOROURACIL] | 28500 nM

same assay, conditions: read-out: IC50

Structure (SMILES) | IC50
CC/C=C\C/C=C\C/C=C\C/C=C\C/C=C\C/C=C\CCC(=O)OC[C@H]1O[C@H](C2CCCC=C2C)C=CC1=O (some centres undefined) | 20 nM
CCCCC/C=C\C/C=C\C/C=C\C/C=C\CCCC(=O)OC[C@@H]1C=CC(=O)[C@@H](C2CCCC=C2C)O1 (some centres undefined) | 5000 nM
CCCCC/C=C\C/C=C\C/C=C\C/C=C\CCCC(=O)OC[C@H]1O[C@H](CC2=CCCCC2)C=CC1=O | 7000 nM
CC/C=C\C/C=C\C/C=C\C/C=C\C/C=C\C/C=C\CCC(=O)OC[C@@H]1C=CC(=O)[C@@H](CC2=CCCCC2)O1 | 30000 nM
CC/C=C\C/C=C\C/C=C\C/C=C\C/C=C\C/C=C\CCC(=O)OC[C@H]1O[C@H](CC2=CCCCC2)C=CC1=O | 50 nM
CC1=CCCCC1[C@H]1O[C@H](CO)C=CC1=O (some centres undefined) | 3500 nM
CC(=O)OC[C@H]1O[C@H](C2CCCC=C2C)C=CC1=O (some centres undefined) | 700 nM
CCCC(=O)OC[C@H]1O[C@H](CC2=CCCCC2)C=CC1=O | 90 nM
CCCCCCCC/C=C\CCCCCCCC(=O)OC[C@@H]1C=CC(=O)[C@@H](C2CCCC=C2C)O1 (some centres undefined) | 35000 nM
CC/C=C\C/C=C\C/C=C\C/C=C\C/C=C\C/C=C\CCC(=O)OC[C@@H]1C=CC(=O)[C@@H](C2CCCC=C2C)O1 (some centres undefined) | 65000 nM
CCCCCCCC/C=C\CCCCCCCC(=O)OC[C@H]1O[C@H](CC2=CCCCC2)C=CC1=O | 80 nM
CCCCC/C=C\C/C=C\C/C=C\C/C=C\CCCC(=O)OC[C@H]1O[C@H](C2CCCC=C2C)C=CC1=O (some centres undefined) | 1 nM
CCCCCCCC/C=C\CCCCCCCC(=O)OC[C@H]1O[C@H](C2CCCC=C2C)C=CC1=O (some centres undefined) | 50 nM
CCCC(=O)OC[C@H]1O[C@H](C2CCCC=C2C)C=CC1=O (some centres undefined) | 350 nM
CCCCC/C=C\C/C=C\C/C=C\C/C=C\CCCC(=O)OC[C@@H]1C=CC(=O)[C@@H](CC2=CCCCC2)O1 | 35000 nM
O=C1C=C[C@@H](CC2=CCCCC2)O[C@@H]1CO | 3000 nM
CC(=O)OC[C@H]1O[C@H](CC2=CCCCC2)C=CC1=O | 150 nM
O=C1C=C[C@@H](CO)O[C@@H]1CC1=CCCCC1 | 9500 nM
